Source: US10927106B2, “Benzothiazole derivatives as DYRK1 inhibitors” (PHARMASUM THERAPEUTICS AS, priority 2017, dated 2021)

Legend:
Assay in all cases: Kinase profiling, 33P ATP filter binding assay
Type in all cases: biochemical
Conditions in all cases: 1 micromolar inhibitor concentration, read-out: percentage inhibition
[1] = target: JNK2 (Homo sapiens (Human), UniProt P45984)
[2] = target: p38a MAPK (Homo sapiens (Human), UniProt Q16539)
[3] = target: RSK2 (Homo sapiens (Human), UniProt P51812)
[4] = target: PDK1 (Homo sapiens (Human), UniProt O15530)
[5] = target: PKBb (Homo sapiens (Human), UniProt P31751)
[6] = target: PKA (Homo sapiens (Human), UniProt P17612)
[7] = target: PRK2 (Homo sapiens (Human), UniProt Q16513)
[8] = target: PKD1 (Homo sapiens (Human), UniProt Q15139)
[9] = target: STK33 (Homo sapiens (Human), UniProt Q9BYT3)
[10] = target: MAPKAP-K2 (Homo sapiens (Human), UniProt P49137)
[11] = target: MAPKAP-K3 (Homo sapiens (Human), UniProt Q16644)
[12] = target: CAMK1 (Homo sapiens (Human), UniProt Q14012)
[13] = target: SmMLCK (Homo sapiens (Human), UniProt Q15746)
Description: The determination of protein kinase inhibition was performed at the International Centre for Kinase Profiling at the University of Dundee, UK. […] The ATP concentrations were at or below the calculated Km for ATP for each particular kinase.

[14] = target: CHK1 (Homo sapiens (Human), UniProt O14757)
[15] = target: CDK2-Cyclin A (Homo sapiens (Human), UniProt P24941)
[16] = target: MARK1 (Homo sapiens (Human), UniProt Q9P0L2)
[17] = target: BRSK2 (Homo sapiens (Human), UniProt Q8IWQ3)
[18] = target: MELK (Homo sapiens (Human), UniProt Q14680)
[19] = target: TSSK1 (Homo sapiens (Human), UniProt Q9BXA7)
[20] = target: CK1y2 (Homo sapiens (Human), UniProt P78368)
[21] = target: CK2 (Homo sapiens (Human), UniProt P68400)
[22] = target: NEK2a (Homo sapiens (Human), UniProt P51955)
[23] = target: PIM3 (Homo sapiens (Human), UniProt Q86V86)
[24] = target: HIPK1 (Homo sapiens (Human), UniProt Q86Z02)
[25] = target: PAK6 (Homo sapiens (Human), UniProt Q9NQU5)
[26] = target: MST2 (Homo sapiens (Human), UniProt Q13188)
[27] = target: MST3 (Homo sapiens (Human), UniProt Q9Y6E0)
[28] = target: GCK (Homo sapiens (Human), UniProt Q12851)
[29] = target: MAP4K5 (Homo sapiens (Human), UniProt Q9Y4K4)
[30] = target: MEKK1 (Homo sapiens (Human), UniProt Q13233)
[31] = target: TESK1 (Homo sapiens (Human), UniProt Q15569)
[32] = target: IRAK1 (Homo sapiens (Human), UniProt P51617)
[33] = target: ULK2 (Homo sapiens (Human), UniProt Q8IYT8)
[34] = target: ABL (Homo sapiens (Human), UniProt P00519)
[35] = target: JAK2 (Homo sapiens (Human), UniProt O60674)
[36] = target: TIE2 (Homo sapiens (Human), UniProt Q02763)
[37] = target: BRK (Homo sapiens (Human), UniProt Q13882)
[38] = target: EPH-B2 (Homo sapiens (Human), UniProt P29323)
[39] = target: EPH-B3 (Homo sapiens (Human), UniProt P54753)
[40] = target: FGF-R1 (Homo sapiens (Human), UniProt P11362)
[41] = target: PDGFRA (Homo sapiens (Human), UniProt P16234)

Chain of HIPK1 (Q86Z02 whole entry, species assumed): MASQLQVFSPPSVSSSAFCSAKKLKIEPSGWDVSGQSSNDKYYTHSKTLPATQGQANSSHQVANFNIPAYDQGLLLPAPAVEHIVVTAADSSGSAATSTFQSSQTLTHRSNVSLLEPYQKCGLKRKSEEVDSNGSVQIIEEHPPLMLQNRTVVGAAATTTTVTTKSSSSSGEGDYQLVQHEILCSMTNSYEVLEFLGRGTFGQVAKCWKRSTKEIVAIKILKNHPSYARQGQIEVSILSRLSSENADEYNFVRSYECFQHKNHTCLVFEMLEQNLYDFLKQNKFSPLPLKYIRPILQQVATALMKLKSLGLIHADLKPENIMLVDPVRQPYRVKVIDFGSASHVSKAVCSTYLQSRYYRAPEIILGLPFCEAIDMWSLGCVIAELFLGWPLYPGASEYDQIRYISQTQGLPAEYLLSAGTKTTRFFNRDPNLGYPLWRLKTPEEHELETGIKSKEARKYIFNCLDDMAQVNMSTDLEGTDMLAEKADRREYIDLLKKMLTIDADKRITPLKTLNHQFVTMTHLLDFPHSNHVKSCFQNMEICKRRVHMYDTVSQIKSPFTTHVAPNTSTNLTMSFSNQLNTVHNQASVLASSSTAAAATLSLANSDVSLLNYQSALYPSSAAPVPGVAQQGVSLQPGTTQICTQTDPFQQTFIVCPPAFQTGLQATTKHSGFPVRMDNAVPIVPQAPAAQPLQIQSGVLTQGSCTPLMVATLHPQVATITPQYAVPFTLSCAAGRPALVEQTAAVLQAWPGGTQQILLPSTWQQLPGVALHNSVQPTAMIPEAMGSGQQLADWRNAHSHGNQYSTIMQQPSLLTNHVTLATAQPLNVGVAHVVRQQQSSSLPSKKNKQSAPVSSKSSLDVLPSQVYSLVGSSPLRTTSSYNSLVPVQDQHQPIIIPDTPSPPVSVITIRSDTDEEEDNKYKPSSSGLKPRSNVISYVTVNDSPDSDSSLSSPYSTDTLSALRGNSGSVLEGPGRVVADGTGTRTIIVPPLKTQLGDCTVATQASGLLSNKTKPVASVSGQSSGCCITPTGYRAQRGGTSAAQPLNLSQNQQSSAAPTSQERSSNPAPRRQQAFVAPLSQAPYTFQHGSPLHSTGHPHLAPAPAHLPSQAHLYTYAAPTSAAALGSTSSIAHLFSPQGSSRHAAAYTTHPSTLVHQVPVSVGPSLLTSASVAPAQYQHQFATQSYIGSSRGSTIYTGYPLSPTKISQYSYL
Chain of NEK2a (P51955 whole entry, species assumed): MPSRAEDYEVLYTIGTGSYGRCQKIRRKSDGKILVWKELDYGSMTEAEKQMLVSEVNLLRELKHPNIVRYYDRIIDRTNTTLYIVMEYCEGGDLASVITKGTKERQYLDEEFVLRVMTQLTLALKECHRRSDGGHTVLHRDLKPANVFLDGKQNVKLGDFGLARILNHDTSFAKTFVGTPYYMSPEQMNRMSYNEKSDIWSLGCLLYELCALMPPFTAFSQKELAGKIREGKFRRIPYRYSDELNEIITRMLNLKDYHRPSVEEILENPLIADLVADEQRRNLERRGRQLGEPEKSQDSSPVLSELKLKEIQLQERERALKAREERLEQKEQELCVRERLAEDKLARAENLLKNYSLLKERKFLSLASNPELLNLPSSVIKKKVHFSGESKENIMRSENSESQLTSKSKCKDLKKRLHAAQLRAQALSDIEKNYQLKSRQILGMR
Chain of GCK (Q12851 whole entry): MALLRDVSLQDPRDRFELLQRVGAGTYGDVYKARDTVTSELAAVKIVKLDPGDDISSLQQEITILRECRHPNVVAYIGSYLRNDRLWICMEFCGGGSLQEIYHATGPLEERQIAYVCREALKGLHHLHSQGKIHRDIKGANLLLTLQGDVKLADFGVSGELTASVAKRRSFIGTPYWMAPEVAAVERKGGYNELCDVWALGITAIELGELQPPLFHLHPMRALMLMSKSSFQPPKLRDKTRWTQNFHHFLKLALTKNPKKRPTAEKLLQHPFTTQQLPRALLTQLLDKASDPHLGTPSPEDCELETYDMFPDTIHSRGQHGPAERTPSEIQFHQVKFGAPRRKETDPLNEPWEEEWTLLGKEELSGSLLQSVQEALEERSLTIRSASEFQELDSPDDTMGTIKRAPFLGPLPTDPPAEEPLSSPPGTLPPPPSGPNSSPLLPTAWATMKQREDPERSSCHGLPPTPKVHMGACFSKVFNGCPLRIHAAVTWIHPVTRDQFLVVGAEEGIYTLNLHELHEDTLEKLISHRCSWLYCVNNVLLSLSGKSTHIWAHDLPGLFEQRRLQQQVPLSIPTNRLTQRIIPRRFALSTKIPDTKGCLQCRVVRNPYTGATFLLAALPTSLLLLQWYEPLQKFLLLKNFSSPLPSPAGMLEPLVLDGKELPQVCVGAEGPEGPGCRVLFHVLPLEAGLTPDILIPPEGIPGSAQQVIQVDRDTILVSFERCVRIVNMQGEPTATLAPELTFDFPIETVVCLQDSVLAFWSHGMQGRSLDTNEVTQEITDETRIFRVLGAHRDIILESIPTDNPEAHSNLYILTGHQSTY
Chain of EPH-B2 (P29323 19-1055, species assumed): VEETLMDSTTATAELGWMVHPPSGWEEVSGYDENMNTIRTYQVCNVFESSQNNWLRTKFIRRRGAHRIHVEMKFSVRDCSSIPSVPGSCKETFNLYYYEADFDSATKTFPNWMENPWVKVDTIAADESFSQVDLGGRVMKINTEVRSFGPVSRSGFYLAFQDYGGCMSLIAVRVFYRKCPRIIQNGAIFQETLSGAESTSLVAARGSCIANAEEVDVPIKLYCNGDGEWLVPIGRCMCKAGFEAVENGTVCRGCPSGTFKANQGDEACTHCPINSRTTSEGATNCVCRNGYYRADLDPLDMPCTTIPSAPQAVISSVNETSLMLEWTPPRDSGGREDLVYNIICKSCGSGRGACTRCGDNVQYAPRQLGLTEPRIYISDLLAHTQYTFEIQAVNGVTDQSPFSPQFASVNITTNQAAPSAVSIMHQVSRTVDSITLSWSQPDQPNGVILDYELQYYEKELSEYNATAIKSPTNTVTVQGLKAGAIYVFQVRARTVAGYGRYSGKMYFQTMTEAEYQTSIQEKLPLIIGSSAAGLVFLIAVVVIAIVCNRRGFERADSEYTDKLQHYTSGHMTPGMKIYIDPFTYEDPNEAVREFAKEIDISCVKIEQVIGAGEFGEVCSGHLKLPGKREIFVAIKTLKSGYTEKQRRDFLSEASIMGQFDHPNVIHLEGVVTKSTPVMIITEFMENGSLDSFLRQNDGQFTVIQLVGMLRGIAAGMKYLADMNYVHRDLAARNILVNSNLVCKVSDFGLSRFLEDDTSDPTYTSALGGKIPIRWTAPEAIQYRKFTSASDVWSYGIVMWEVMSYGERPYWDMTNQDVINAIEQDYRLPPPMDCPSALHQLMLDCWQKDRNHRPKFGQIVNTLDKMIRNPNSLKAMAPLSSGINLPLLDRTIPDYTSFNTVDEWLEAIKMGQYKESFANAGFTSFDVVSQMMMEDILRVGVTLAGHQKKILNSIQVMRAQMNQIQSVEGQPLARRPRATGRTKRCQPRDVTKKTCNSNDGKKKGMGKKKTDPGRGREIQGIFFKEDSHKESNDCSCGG
Chain of CHK1 (O14757 whole entry, species assumed): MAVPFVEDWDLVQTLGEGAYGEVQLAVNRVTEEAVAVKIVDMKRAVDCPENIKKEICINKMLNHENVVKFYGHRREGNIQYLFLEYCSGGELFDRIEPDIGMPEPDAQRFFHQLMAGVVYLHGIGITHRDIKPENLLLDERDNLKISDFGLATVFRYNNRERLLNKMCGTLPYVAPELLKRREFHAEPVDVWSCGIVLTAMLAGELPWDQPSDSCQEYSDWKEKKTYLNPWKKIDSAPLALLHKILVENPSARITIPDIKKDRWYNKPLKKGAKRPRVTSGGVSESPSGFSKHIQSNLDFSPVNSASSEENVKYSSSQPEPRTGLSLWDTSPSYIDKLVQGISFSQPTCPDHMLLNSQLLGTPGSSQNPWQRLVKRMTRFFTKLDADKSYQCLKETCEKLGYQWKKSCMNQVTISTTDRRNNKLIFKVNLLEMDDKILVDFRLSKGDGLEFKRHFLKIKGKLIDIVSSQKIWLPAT
Chain of EPH-B3 (P54753 34-998, species assumed): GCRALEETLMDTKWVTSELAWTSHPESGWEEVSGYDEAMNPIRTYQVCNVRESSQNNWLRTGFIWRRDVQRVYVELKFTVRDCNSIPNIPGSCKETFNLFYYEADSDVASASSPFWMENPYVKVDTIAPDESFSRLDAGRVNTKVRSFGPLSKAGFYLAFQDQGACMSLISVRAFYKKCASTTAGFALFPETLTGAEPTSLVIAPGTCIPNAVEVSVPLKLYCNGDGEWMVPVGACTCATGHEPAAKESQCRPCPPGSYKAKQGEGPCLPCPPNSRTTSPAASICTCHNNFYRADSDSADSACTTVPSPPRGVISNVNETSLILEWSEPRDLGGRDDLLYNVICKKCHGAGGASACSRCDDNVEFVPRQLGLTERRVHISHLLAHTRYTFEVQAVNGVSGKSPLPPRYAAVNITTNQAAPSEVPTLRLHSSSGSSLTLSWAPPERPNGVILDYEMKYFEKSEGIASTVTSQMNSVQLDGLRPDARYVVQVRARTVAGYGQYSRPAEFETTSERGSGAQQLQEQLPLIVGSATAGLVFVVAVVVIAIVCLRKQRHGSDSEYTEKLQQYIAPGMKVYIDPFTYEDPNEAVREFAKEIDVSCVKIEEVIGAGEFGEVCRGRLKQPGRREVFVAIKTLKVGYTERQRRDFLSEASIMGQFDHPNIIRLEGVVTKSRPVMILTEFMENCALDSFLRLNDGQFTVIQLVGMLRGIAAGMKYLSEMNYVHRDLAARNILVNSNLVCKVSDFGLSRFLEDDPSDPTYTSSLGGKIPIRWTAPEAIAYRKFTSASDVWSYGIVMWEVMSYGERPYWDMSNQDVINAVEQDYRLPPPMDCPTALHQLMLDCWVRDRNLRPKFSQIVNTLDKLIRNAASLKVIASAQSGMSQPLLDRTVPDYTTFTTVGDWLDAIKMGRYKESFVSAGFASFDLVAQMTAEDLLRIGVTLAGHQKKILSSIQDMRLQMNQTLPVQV

Q: How did the inhibition at 1 µM [1] turn out when COc1ccc2sc(-c3cncc(NC(C)=O)c3)nc2c1 [4-93, N-(5-(5-Methoxybenzo[d]thiazol-2-yl)pyridin-3-yl)acetamide] was run?
A: 0%

Q: What about the inhibition at 1 µM [2] of the same compound?
A: 0%

Q: And the inhibition at 1 µM [3]?
A: 0%

Q: What about the inhibition at 1 µM [4] of the same compound?
A: 0%

Q: What about the inhibition at 1 µM [5] of the same compound?
A: 0%

Q: What about the inhibition at 1 µM [6] of the same compound?
A: 12%

Q: And the inhibition at 1 µM [7]?
A: 0%

Q: And the inhibition at 1 µM [8]?
A: 0%

Q: And the inhibition at 1 µM [9]?
A: 0%

Q: What about the inhibition at 1 µM [10] of the same compound?
A: 0%

Q: What about the inhibition at 1 µM [11] of the same compound?
A: 0%

Q: And the inhibition at 1 µM [12]?
A: 0%

Q: And the inhibition at 1 µM [13]?
A: 0%

Q: What about the inhibition at 1 µM [14] of the same compound?
A: 0%

Q: What about the inhibition at 1 µM [15] of the same compound?
A: 0%

Q: What about the inhibition at 1 µM [16] of the same compound?
A: 0%

Q: What about the inhibition at 1 µM [17] of the same compound?
A: 0%

Q: And the inhibition at 1 µM [18]?
A: 1%

Q: And the inhibition at 1 µM [19]?
A: 0%

Q: What about the inhibition at 1 µM [20] of the same compound?
A: 0%

Q: What about the inhibition at 1 µM [21] of the same compound?
A: 0%

Q: What about the inhibition at 1 µM [22] of the same compound?
A: 0%

Q: And the inhibition at 1 µM [23]?
A: 7%

Q: And the inhibition at 1 µM [24]?
A: 0%

Q: What about the inhibition at 1 µM [25] of the same compound?
A: 0%

Q: What about the inhibition at 1 µM [26] of the same compound?
A: 0%

Q: And the inhibition at 1 µM [27]?
A: 0%

Q: And the inhibition at 1 µM [28]?
A: 0%

Q: And the inhibition at 1 µM [29]?
A: 18%

Q: And the inhibition at 1 µM [30]?
A: 0%

Q: What about the inhibition at 1 µM [31] of the same compound?
A: 0%

Q: What about the inhibition at 1 µM [32] of the same compound?
A: 0%

Q: And the inhibition at 1 µM [33]?
A: 0%

Q: What about the inhibition at 1 µM [34] of the same compound?
A: 3%

Q: What about the inhibition at 1 µM [35] of the same compound?
A: 0%

Q: What about the inhibition at 1 µM [36] of the same compound?
A: 0%

Q: What about the inhibition at 1 µM [37] of the same compound?
A: 0%

Q: What about the inhibition at 1 µM [38] of the same compound?
A: 0%

Q: What about the inhibition at 1 µM [39] of the same compound?
A: 0%

Q: And the inhibition at 1 µM [40]?
A: 0%

Q: And the inhibition at 1 µM [41]?
A: 0%

Q: For CS(=O)(=O)Nc1cncc(-c2nc3cc(O)ccc3s2)c1 [4-99, N-(5-(5-Hydroxybenzo[d]thiazol-2-yl)pyridin-3-yl)methanesulfonamide], which inhibition at 1 µM [1] is on record?
A: 0%

Q: And the inhibition at 1 µM [2]?
A: 0%

Q: And the inhibition at 1 µM [3]?
A: 0%

Q: And the inhibition at 1 µM [4]?
A: 0%

Q: What about the inhibition at 1 µM [5] of the same compound?
A: 0%

Q: What about the inhibition at 1 µM [6] of the same compound?
A: 3%

Q: And the inhibition at 1 µM [7]?
A: 0%

Q: What about the inhibition at 1 µM [8] of the same compound?
A: 0%

Q: What about the inhibition at 1 µM [9] of the same compound?
A: 0%

Q: What about the inhibition at 1 µM [10] of the same compound?
A: 0%

Q: What about the inhibition at 1 µM [11] of the same compound?
A: 0%

Q: What about the inhibition at 1 µM [12] of the same compound?
A: 0%

Q: And the inhibition at 1 µM [13]?
A: 0%

Q: And the inhibition at 1 µM [14]?
A: 0%

Q: And the inhibition at 1 µM [15]?
A: 6%

Q: What about the inhibition at 1 µM [16] of the same compound?
A: 0%

Q: What about the inhibition at 1 µM [17] of the same compound?
A: 0%

Q: What about the inhibition at 1 µM [18] of the same compound?
A: 0%

Q: And the inhibition at 1 µM [19]?
A: 0%

Q: What about the inhibition at 1 µM [20] of the same compound?
A: 0%

Q: And the inhibition at 1 µM [21]?
A: 6%

Q: What about the inhibition at 1 µM [22] of the same compound?
A: 0%

Q: What about the inhibition at 1 µM [23] of the same compound?
A: 0%

Q: And the inhibition at 1 µM [24]?
A: 0%

Q: And the inhibition at 1 µM [25]?
A: 0%

Q: And the inhibition at 1 µM [26]?
A: 0%

Q: And the inhibition at 1 µM [27]?
A: 0%

Q: What about the inhibition at 1 µM [28] of the same compound?
A: 0%

Q: What about the inhibition at 1 µM [29] of the same compound?
A: 0%

Q: And the inhibition at 1 µM [30]?
A: 0%

Q: And the inhibition at 1 µM [31]?
A: 0%

Q: What about the inhibition at 1 µM [32] of the same compound?
A: 0%

Q: And the inhibition at 1 µM [33]?
A: 0%

Q: And the inhibition at 1 µM [34]?
A: 0%

Q: What about the inhibition at 1 µM [35] of the same compound?
A: 0%

Q: And the inhibition at 1 µM [36]?
A: 3%

Q: And the inhibition at 1 µM [37]?
A: 0%

Q: What about the inhibition at 1 µM [38] of the same compound?
A: 0%

Q: What about the inhibition at 1 µM [39] of the same compound?
A: 2%

Q: And the inhibition at 1 µM [40]?
A: 0%

Q: What about the inhibition at 1 µM [41] of the same compound?
A: 0%
